Test results as given in patent US10221139B2, “Inhibitors of histone demethylases” (Gilead Sciences, Inc., priority 2012, dated 2019).

How the values were obtained:
GASC1 (KDM4C, JMJD2C) = target: T1, GASC1 (KDM4C, JMJD2C) (Homo sapiens, UniProt Q9H3R0); assay: Histone lysine demethylase AlphaLISA assay, GASC1; assay type: biochemical; details: substrate BK9M3
T1 construct: 1-349; host or cells: E. coli
T1 sequence (Q9H3R0 1-349): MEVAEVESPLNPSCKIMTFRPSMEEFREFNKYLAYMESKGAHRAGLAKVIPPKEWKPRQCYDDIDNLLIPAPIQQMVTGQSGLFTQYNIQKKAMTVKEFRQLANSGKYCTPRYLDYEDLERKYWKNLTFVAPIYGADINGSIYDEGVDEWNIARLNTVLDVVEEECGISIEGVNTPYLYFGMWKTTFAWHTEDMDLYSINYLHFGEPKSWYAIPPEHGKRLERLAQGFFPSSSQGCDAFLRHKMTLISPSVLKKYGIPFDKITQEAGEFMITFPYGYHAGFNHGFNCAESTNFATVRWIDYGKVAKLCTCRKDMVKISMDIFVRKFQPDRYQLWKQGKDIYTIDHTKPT
In short: (§1)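 Enzyme was preincubated 10 min, then 10 min with compounds in 3% DMSO buffer before substrate addition; reaction ran at room temperature. AlphaLISA acceptor beads (60 min, dark) and streptavidin donor beads were added before reading for IC50.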

FBXL10 (KDM2B) = target: T2, FBXL10 (KDM2B) (Homo sapiens, UniProt Q8NHM5); assay: Histone lysine demethylase AlphaLISA assay, FBXL10; assay type: biochemical; details: substrate BH3K36M2
T2 construct: 1-650; purchased BPS, Bioscience, US; host or cells: Bac (baculovirus)
T2 sequence (Q8NHM5 1-650): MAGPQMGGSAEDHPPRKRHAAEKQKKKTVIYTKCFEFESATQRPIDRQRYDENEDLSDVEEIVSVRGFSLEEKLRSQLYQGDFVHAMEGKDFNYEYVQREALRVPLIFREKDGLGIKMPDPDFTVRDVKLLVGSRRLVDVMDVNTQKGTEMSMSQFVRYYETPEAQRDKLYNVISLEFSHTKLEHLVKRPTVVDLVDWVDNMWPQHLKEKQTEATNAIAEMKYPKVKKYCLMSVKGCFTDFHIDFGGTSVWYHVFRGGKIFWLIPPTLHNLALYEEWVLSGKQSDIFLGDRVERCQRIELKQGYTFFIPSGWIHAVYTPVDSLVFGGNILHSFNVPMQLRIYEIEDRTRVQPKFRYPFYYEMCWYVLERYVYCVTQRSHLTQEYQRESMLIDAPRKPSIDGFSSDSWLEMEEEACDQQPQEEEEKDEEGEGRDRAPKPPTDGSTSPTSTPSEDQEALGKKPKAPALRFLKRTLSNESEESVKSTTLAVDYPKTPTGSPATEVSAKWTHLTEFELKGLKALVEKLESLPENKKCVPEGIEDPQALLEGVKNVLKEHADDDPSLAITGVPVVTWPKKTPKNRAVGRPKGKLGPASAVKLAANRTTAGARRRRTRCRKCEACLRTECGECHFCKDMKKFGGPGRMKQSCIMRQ
In short: as §1

JARID1C (KDM5C) = target: T3, JARID1C (KDM5C) (Homo sapiens, UniProt P41229); assay: Histone lysine demethylase AlphaLISA assay, JARID1C; assay type: biochemical; details: substrate H3K4M3B
T3 construct: 2-1560; purchased BPS; host or cells: Bac (baculovirus)
T3 sequence (P41229 2-1560): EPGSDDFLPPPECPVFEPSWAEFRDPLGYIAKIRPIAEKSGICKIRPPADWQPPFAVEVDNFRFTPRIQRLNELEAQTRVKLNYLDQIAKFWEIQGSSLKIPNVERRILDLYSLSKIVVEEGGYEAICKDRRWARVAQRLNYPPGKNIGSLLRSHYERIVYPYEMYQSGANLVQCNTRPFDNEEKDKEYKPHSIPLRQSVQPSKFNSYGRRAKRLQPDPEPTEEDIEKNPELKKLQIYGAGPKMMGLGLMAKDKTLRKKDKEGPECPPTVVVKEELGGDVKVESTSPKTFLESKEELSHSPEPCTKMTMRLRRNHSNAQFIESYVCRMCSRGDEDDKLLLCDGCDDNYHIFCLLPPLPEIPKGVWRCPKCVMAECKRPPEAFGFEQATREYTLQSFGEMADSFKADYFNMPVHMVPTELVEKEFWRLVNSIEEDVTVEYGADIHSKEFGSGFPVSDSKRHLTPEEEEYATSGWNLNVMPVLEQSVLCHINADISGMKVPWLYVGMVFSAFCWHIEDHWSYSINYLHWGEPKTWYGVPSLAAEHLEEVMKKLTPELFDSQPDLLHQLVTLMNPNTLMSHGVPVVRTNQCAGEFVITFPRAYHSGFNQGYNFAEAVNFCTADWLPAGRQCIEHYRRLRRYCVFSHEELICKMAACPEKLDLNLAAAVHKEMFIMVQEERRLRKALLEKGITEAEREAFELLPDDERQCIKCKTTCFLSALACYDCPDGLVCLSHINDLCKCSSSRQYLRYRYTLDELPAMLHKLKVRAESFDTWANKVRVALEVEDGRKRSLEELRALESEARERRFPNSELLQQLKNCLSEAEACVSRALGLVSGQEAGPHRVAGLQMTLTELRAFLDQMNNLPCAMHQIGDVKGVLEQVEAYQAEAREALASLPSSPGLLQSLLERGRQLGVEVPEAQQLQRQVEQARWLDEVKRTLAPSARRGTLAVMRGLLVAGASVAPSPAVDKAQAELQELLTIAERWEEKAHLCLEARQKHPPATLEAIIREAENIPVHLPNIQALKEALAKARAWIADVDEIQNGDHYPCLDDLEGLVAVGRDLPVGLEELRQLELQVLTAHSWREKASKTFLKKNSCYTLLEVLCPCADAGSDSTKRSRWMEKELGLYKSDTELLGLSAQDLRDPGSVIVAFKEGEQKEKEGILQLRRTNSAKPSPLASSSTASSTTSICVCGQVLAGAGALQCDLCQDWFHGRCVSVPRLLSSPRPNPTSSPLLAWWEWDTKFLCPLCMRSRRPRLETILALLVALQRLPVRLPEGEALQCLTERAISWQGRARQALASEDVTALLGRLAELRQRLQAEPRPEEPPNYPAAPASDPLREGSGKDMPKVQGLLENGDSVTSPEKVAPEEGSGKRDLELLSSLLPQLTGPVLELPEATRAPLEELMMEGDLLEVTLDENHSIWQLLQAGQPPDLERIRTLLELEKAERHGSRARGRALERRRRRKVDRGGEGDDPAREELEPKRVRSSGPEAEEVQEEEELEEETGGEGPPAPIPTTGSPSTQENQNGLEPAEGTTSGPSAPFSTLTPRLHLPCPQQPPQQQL
Protocol: (§2) Example 2: Histone Lysine Demethylase AlphaLISA Assays for IC50 Value Determination
(§3) Assays are performed analogously to the protocol described by Perkin Elmer (Roy et al. Perkin Elmer Technical Note: AlphaLISA #12, April 2011).
(§4) Enzymes are dissolved in enzyme buffer and incubated for 10 min before 5 μL is added to 5 μL 3% DMSO solutions of compounds in enzyme buffer. Incubated for another 10 minutes, before 5 μL substrate solution is added and the reaction mixture is incubated at room temperature for the given period. 10 μL acceptor beads, suspended at given dilutions in Epigenetic Buffer (Perkin Elmer AL008) from stock, are added and the suspension is incubated 60 minutes in the dark at room temperature, before 10 μL suspension (at the given dilutions in Epigenetic Buffer) of streptavidin donor beads (Perkin Elmer 6760002) in Epigenetic Buffer is added. After incubation at room temperature in the dark the plates are read. Reaction conditions are seen in Table 2b.

JMJD1B (KDM3B) = target: T4, JMJD1B (KDM3B) (Homo sapiens, UniProt Q7LBC6); assay: Histone lysine demethylase AlphaLISA assay, JMJD1B; assay type: biochemical; details: substrate BK9M2
T4 construct: 842-1761; host or cells: Bac (baculovirus)
T4 sequence (Q7LBC6 842-1761): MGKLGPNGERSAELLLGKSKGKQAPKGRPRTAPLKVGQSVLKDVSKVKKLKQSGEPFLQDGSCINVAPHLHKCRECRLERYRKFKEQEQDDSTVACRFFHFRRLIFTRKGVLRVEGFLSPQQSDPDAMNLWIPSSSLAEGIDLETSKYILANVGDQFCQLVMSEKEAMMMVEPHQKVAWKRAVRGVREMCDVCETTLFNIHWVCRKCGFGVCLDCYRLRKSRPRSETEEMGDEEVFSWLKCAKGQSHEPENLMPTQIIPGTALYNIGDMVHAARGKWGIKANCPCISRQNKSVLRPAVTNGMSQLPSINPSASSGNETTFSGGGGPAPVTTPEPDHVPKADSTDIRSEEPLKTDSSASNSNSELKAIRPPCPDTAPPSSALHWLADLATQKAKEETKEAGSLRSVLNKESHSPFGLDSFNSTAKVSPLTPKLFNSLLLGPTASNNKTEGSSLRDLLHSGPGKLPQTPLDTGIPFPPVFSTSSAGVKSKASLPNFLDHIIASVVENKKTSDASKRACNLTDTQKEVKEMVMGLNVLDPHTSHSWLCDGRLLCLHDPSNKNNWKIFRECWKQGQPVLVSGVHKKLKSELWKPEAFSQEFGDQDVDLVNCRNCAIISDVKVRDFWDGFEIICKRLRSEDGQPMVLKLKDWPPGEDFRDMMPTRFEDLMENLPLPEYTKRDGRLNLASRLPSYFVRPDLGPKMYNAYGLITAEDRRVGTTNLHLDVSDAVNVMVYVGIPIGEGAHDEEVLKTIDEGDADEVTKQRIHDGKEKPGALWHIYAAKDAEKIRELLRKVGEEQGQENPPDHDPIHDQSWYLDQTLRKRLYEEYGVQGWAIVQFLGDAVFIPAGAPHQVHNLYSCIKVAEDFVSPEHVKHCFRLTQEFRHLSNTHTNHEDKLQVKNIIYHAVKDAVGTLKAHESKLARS
Protocol: as §2, §3, §4

JMJD2A (KDM4A) [1] = target: T5, JMJD2A (KDM4A) (Homo sapiens, UniProt O75164); assay: Histone lysine demethylase AlphaLISA assay, JMJD2A; assay type: biochemical; details: substrate BK9M3
T5 construct: 1-350; purchased BPS, Bioscience, US; host or cells: E. coli
T5 sequence (O75164 1-350): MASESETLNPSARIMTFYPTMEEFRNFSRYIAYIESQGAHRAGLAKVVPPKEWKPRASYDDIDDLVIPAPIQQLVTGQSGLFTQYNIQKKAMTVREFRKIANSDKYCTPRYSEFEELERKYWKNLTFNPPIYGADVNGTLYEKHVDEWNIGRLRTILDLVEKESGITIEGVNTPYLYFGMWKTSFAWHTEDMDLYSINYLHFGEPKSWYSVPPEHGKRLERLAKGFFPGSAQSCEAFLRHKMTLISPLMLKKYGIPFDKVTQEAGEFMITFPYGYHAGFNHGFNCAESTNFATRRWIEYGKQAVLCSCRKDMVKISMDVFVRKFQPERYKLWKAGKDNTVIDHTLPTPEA
Protocol: as §2, §3, §4

JMJD2B (KDM4B) = target: T6, JMJD2B (KDM4B) (Homo sapiens, UniProt O94953); assay: Histone lysine demethylase AlphaLISA assay, JMJD2B; assay type: biochemical; details: substrate BK9M3, read-out: JMUD2B IC50
T6 construct: 2-500; purchased BPS; host or cells: Bac (baculovirus)
T6 sequence (O94953 2-500): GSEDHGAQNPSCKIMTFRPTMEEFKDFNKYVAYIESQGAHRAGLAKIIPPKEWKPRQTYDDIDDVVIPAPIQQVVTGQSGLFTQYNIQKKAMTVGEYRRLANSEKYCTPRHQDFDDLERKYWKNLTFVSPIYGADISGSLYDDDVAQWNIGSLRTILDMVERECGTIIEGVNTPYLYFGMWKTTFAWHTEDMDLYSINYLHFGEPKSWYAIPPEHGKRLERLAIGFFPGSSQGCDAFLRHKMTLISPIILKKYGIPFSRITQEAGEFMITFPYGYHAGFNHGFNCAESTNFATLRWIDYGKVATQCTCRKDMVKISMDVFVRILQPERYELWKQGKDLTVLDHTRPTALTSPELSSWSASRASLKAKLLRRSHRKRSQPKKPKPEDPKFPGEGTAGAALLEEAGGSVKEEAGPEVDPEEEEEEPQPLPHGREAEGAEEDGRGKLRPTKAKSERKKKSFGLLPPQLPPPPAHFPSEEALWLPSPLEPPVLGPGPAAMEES
Protocol: as §2, §3, §4

PHF8 (KDM7) = target: T7, PHF8 (KDM7) (Homo sapiens, UniProt Q9UPP1); assay: Histone lysine demethylase AlphaLISA assay, PHF8; assay type: biochemical; details: substrate BK9M2
T7 construct: KDM7 (PHF8); BRIC; 1-1322; Bac
T7 sequence (Q9UPP1 37-477 limits assumed): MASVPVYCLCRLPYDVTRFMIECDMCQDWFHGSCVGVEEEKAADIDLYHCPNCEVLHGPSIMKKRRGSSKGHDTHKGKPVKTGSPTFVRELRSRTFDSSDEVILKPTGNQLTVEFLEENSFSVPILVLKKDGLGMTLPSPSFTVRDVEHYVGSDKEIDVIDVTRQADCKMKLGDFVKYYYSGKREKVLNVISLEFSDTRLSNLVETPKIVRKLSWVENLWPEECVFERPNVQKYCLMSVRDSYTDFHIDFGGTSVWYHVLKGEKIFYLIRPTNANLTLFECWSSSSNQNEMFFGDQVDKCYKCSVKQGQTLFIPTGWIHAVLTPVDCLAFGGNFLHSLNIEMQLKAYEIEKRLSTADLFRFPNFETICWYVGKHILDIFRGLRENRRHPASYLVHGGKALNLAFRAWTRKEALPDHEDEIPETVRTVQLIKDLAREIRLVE
Protocol: as §2, §3, §4

JMJD2A (KDM4A) [2] = target: T8, JMJD2A (KDM4A) (Homo sapiens, UniProt O75164); assay: Immunofluorescence assay in U2OS cells transfected with pCMVHA JMJD2A (H3K9me3 mark); assay type: cell-based; details: 20 hours
T8 construct: Full length; host or cells: U2OS
T8 sequence (O75164 1-1064): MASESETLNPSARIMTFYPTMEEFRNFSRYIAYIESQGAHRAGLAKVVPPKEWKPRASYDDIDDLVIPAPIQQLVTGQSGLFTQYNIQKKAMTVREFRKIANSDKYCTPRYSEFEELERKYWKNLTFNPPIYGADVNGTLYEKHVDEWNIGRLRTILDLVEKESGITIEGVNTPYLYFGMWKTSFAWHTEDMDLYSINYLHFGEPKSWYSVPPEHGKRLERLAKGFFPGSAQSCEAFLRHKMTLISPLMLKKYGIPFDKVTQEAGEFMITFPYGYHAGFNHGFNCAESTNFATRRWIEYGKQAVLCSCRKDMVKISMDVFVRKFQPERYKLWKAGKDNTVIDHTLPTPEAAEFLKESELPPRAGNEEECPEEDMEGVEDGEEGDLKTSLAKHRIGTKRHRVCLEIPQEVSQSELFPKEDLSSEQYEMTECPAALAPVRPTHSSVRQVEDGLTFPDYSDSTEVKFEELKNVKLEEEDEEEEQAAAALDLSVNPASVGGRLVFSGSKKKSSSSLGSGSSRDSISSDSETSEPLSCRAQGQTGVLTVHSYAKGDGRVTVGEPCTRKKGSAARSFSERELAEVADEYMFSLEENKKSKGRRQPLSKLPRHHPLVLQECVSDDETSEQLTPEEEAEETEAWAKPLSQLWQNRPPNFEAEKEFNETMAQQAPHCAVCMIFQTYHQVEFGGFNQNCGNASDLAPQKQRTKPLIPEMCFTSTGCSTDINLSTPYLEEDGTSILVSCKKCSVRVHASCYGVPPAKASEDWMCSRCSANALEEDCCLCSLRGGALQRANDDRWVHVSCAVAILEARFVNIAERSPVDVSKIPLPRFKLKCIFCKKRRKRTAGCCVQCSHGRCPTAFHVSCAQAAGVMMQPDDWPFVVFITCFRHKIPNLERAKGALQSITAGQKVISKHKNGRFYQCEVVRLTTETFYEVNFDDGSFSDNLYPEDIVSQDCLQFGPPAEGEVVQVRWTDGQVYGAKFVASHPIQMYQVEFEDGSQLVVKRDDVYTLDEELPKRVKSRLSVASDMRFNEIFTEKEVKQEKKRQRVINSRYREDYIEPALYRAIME
Protocol: U2OS cells were seeded 24 hours before transfection. Transfection was performed with Fugene HD transfection reagent as recommended by the manufacturer. 6 hours after transfection, the cells were harvested and seeded into multi well plates into media containing compound. The media used was DMEM containing 5% FBS and pen/strep. 20 hours after incubation of cells with compounds, the cells were washed once in PBS, harvested by fixation with formaldehyde 4% aqueous solution, and washed 2 times in PBS. Subsequently, the cells were permeabilized in PBS with 0.2% Triton X-100 for 10 min at room temperature. Blocking was performed in PBS with 0.2% Triton X-100 and 5% FBS for 45 min at room temperature. The cells were incubated with primary antibodies diluted 1 μg/ml in blocking solution over night at 4° C. The primary antibodies used in the assays were HA.11 (Covance, MMS-101P) and the antibody detecting the mark specified in the Table 6 below. After incubation with primary antibodies, the cells were washed 3 times with PBS, incubated with secondary antibodies diluted 1:1000 (Alexa fluor 594 goat anti rabbit IgG, Invitrogen, A11012; Alexa flour 488 donkey anti mouse IgG, Invitrogen, A21202) and Hoechst, 20 μg/ml (Sigma, 33342) in blocking solution, and washed again 3 times with PBS. Finally, PBS was added and high throughput imaging and analysis were performed by an IN Cell Analyzer 1000 (GE Healthcare). The robot software analyzed individual cells and divided these into HA^+ (transfected cells) and HA^− (non-transfected cells). The IC50 values in Table 7 below were based on an average measure of the staining of the mark specified in the Table 6 below in the transfected cells.

## CN(CCCCN(Cc1ccccc1)C1CC1)C(=O)CNCc1cc(C(=O)O)ccn1 [#44, 2-({[({4-[benzyl(cyclopropyl)amino]butyl}(methyl)carbamoyl)methyl]amino}methyl)pyridine-4-carboxylic acid]
GASC1 (KDM4C, JMJD2C)
  IC50: < 100 nM
FBXL10 (KDM2B)
  IC50: < 100 nM
JARID1C (KDM5C)
  IC50: < 100 nM
JMJD1B (KDM3B)
  IC50: ≥ 1000 nM
JMJD2A (KDM4A) [1]
  IC50: < 100 nM
JMJD2B (KDM4B)
  IC50: < 100 nM
PHF8 (KDM7)
  IC50: 100 to 1000 nM

## CCOC(=O)N(C)c1ccc(COC(=O)c2ccnc(CNCCCCN(CC)CC)c2)cc1 [drawing 333, {4-[(ethoxycarbonyl)(methyl)amino]phenyl}methyl 2-({[4-(diethylamino)butyl]amino}methyl)pyridine-4-carboxylate]
JMJD2A (KDM4A) [2]
  IC50: < 1000 nM

## CCCCCCCCCCCCCCCC(=O)OCC(COC(=O)CCCCCCCCCCCCCCC)OC(=O)c1ccnc(CNCC(=O)N(CC)CCN(C)C)c1 [drawing 334, 2-(2-{[({[2-(dimethylamino)ethyl](ethyl)carbamoyl}methyl)amino]methyl}pyridine-4-carbonyloxy)-3-(hexadecanoyloxy)propyl hexadecanoate]
JMJD2A (KDM4A) [2]
  IC50: 1000 to 50000 nM

## CSCCNCc1cc(C(=O)O)ccn1 [drawing 304, 2-({[2-(methylsulfanyl)ethyl]amino}methyl)pyridine-4-carboxylic acid]
JMJD2A (KDM4A) [2]
  IC50: 1000 to 50000 nM
